Source: US11542492B2 (Celgene CAR LLC, priority 2009, dated 2023)

biological target: T1, HCV NS3/4A 1b protease enzyme (wild type) (Hepatitis C virus genotype 1b, UniProt P26663); test: HCV protease FRET assay (IC50_APP), wild type NS3/4A 1b; assay type: biochemical; conditions: not given
T1 construct: 10× stocks of NS3/4A protease enzyme from Bioenza (Mountain View, Calif.); purchased Bioenza
Procedure: HCV Protease FRET Assay for WT and Mutated NS3/4A 1b Enzymes (IC50_APP).
The following protocol was used to generate “apparent” IC50 (IC50_APP) values as depicted in Table 6, below. Without wishing to be bound by any particular theory, it is believed that IC50_APP, contrasted with IC50 values, may provide a more useful indication of time-dependent inhibition, and are thus more representative of binding affinity. […] 5 μL of each enzyme were added to Corning (#3575) 384-well, black, microtiter plates (Corning, N.Y.) after spotting a 0.5 μL volume of 50% DMSO and serially diluted compounds prepared in 50% DMSO. Protease reactions were immediately started after enzyme addition with the addition of 45 μL of the FRET substrate and monitored for 60-90 minutes at λex485/λem520 in a Synergy plate reader from BioTek (Winooski, Vt.). At the conclusion of each assay, progress curves from each well were examined for linear reaction kinetics and fit statistics (R^2, 95% confidence intervals, absolute sum of squares). Initial velocity (0 minutes to 15+ minutes) from each reaction was determined from the slope of a plot of relative fluorescence units vs time (minutes) and then plotted against inhibitor concentration as a percent of the no inhibitor and no enzyme controls to estimate apparent IC50 from log [Inhibitor] vs Response. (Variable Slope model in GraphPad Prism from GraphPad Software (San Diego, Calif.).)

T1 sequence (P26663 1658-1711): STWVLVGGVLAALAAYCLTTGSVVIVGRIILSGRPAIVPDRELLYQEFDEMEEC
T1 sequence (P26663 1027-1657): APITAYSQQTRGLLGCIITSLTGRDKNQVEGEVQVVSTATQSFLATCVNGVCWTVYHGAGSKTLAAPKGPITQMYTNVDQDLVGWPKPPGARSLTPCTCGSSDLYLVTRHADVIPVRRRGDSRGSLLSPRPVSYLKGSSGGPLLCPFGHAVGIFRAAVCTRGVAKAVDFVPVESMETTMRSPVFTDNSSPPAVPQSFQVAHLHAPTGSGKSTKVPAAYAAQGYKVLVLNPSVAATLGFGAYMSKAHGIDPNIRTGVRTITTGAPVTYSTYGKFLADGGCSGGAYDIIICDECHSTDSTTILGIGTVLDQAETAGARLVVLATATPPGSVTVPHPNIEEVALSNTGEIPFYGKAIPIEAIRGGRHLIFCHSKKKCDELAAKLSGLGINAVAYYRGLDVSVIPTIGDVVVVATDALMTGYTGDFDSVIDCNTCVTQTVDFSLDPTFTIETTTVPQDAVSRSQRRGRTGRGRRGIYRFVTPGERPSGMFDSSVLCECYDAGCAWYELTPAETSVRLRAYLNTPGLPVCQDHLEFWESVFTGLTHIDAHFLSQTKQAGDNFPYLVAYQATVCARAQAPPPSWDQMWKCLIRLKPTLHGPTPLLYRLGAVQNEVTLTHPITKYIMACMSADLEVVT

How did the IC50 turn out when `C=C[C@@H]1C[C@]1(NC(=O)[C@@H]1CC(OC(=O)N2Cc3cccc(F)c3C2)CN1C(=O)[C@H](CCNC(=O)[C@H]1CCC(=O)O1)NC(=O)OC(C)(C)C)C(=O)NS(=O)(=O)C1CC1` (stereo partly drawn) [XVI-10, (5S)-1-((S)-2-(tert-butoxycarbonylamino)-4-((R)-5-oxotetrahydrofuran-2-carboxamido)butanoyl)-5-((1R,2S)-1-(cyclopropylsulfonylcarbamoyl)-2-vinylcyclopropylcarbamoyl)pyrrolidin-3-yl 4-fluoroisoindoline-2-carboxylate] was run?
Its IC50 is 100 to 1000 nM.

How did the IC50 turn out when `C=C[C@@H]1C[C@]1(NC(=O)[C@@H]1CC(OC(=O)N2Cc3cccc(F)c3C2)CN1C(=O)[C@H](CCNC(=O)[C@@H]1CCC(=O)O1)NC(=O)OC(C)(C)C)C(=O)NS(=O)(=O)C1CC1` (stereo partly drawn) [XVI-11, (5S)-1-((S)-2-(tert-butoxycarbonylamino)-4-((S)-5-oxotetrahydrofuran-2-carboxamido)butanoyl)-5-((1R,2S)-1-(cyclopropylsulfonylcarbamoyl)-2-vinylcyclopropylcarbamoyl)pyrrolidin-3-yl 4-fluoroisoindoline-2-carboxylate] was run?
Its IC50 is 100 to 1000 nM.

`C=C[C@@H]1C[C@]1(NC(=O)[C@@H]1CC(OC(=O)N2Cc3cccc(F)c3C2)CN1C(=O)CNC(=O)[C@H]1CCC(=O)O1)C(=O)NS(=O)(=O)C1CC1` (stereo partly drawn) [XVI-12, (5S)-5-((1R,2S)-1-(cyclopropylsulfonylcarbamoyl)-2-vinylcyclopropylcarbamoyl)-1-(2-((R)-5-oxotetrahydrofuran-2-carboxamido)acetyl)pyrrolidin-3-yl 4-fluoroisoindoline-2-carboxylate] was tested. Which IC50 did it give?
The IC50 was 100 to 1000 nM.

`C=C[C@@H]1C[C@]1(NC(=O)[C@@H]1CC(OC(=O)N2Cc3cccc(F)c3C2)CN1C(=O)CNC(=O)[C@@H]1CCC(=O)O1)C(=O)NS(=O)(=O)C1CC1` (stereo partly drawn) [XVI-13, (5S)-5-((1R,2S)-1-(cyclopropylsulfonylcarbamoyl)-2-vinylcyclopropylcarbamoyl)-1-(2-((S)-5-oxotetrahydrofuran-2-carboxamido)acetyl)pyrrolidin-3-yl 4-fluoroisoindoline-2-carboxylate] was tested. Which IC50 did it give?
Its IC50 is 100 to 1000 nM.

For `C=C[C@@H]1C[C@]1(NC(=O)[C@@H]1CC(OC(=O)N2Cc3cccc(F)c3C2)CN1C(=O)[C@H](CN(C)C(=O)[C@H]1CCC(=O)O1)NC(=O)OC(C)(C)C)C(=O)NS(=O)(=O)C1CC1` (stereo partly drawn) [XVI-18, (5S)-1-((S)-2-(tert-butoxycarbonylamino)-3-((R)-N-methyl-5-oxotetrahydrofuran-2-carboxamido)propanoyl)-5-((1R,2S)-1-(cyclopropylsulfonylcarbamoyl)-2-vinylcyclopropylcarbamoyl)pyrrolidin-3-yl 4-fluoroisoindoline-2-carboxylate], which IC50 is on record?
The IC50 was 1 to 10 nM.

biological target: T2, PDPK1 (Homo sapiens, UniProt O15530); test: PDK1-OMNIA kinase assay (ST28-Sox peptide); assay type: biochemical; set-up: purchased Invitrogen, BPS or SignalChem P3001 (Invitrogen), 40080 (BPS), P14-10H (SignalChem); conditions: PDPK1 enzyme pre-incubated 30 min at 25° C. with compound; [ATP]=5 μM; ST28-Sox peptide substrate; read-out: Inhibition/Modification Designation (IC50, PDK1-OMNIA)
T2 sequence (O15530 1-556): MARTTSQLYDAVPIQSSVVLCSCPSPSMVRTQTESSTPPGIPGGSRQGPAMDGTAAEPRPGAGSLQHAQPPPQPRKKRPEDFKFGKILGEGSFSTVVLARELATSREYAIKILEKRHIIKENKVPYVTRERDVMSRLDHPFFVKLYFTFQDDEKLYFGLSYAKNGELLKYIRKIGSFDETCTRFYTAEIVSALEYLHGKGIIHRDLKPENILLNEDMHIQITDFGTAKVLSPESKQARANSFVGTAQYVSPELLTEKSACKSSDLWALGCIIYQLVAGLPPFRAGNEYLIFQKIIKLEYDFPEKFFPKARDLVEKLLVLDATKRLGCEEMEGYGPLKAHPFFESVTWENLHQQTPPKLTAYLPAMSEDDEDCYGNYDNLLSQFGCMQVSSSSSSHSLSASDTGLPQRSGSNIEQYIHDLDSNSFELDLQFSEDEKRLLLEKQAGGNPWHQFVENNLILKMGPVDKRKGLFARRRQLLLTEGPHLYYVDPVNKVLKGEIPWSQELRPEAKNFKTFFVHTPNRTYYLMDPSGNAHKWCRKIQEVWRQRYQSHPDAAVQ
Procedure: Briefly, a 10× stock of PDPK1 enzyme from Invitrogen (P3001) or BPS (40080) or SignalChem (P14-10H), 1.13×ATP (AS001A) and ST28-Sox peptide substrate (KNZ1281C) were prepared in 1× kinase reaction buffer consisting of 20 mM Tris, pH 7.5, 5 mM MgCl2, 1 mM EGTA, 5 mM β-glycerophosphate, 5% glycerol (10× stock, KB002A) and 0.2 mM DTT (DS001A). 5 μL of enzyme were pre-incubated in a Corning (#3574) 384-well, white, non-binding surface microtiter plate (Corning, N.Y.) for 30 min at 25° C. with a 0.5 μL volume of 50% DMSO and serially diluted compounds prepared in 50% DMSO. Kinase reactions were started with the addition of 45 […] of the ST28-Sox peptide substrate and monitored every 71 seconds for 30-60 minutes at λex360/λem485 in a Synergy4 plate reader from BioTek (Winooski, Vt.). At the conclusion of each assay, progress curves from each well were examined for linear reaction kinetics and fit statistics (R^2, 95% confidence interval, absolute sum of squares). Post-lag velocity (+10 minutes to 20+ minutes) from each reaction was estimated from the slope of a plot of relative fluorescence units vs time (minutes) and normalized to the no enzyme and no inhibitor control groups for % Inhibition. The resulting inhibition values were then plotted against inhibitor concentration to estimate IC50 from log [Inhibitor] vs Response, Variable Slope model in GraphPad Prism from GraphPad Software (San Diego, Calif.).
[Reagent] used in provisional protocol(s): Invitrogen—[PDPK1]=5-10 nM, [ATP]=5 μM and [ST28-Sox]=5 μM or 10 μM (ATP KMapp=4-6 μM); BPS—[PDPK1]=10-15 nM, [ATP]=5 μM and [ST28-Sox]=10 μM (ATP KMapp=3-5 μM); SignalChem—[PDPK1]=5-10 nM, [ATP]=5 μM and [ST28-Sox]=5 μM or 10 μM (ATP KMapp ND)

`CC(C)(C(N)=O)C(=O)NCCCNc1nc(Nc2cccc(NC(=O)C3CCSC3=O)c2)ncc1Br` (centres unmarked) [XI-23] was tested. Which IC50 did it give?
The IC50 was 10 to 100 nM.

For `CC(C)(C(N)=O)C(=O)NCCCNc1nc(Nc2cccc(NC(=O)CNC(=O)C3CCSC3=O)c2)ncc1Br` (centres unmarked) [XI-24], which IC50 is on record?
Its IC50 is 10 to 100 nM.

With `CC(C)(C(N)=O)C(=O)NCCCNc1nc(Nc2cccc(NC(=O)CCC(=O)Oc3ccccc3)c2)ncc1Br` [XI-25] as the molecule, how does the IC50 read?
The IC50 was under 10 nM.

How did the IC50 turn out when `CC(C)(C(N)=O)C(=O)NCCCNc1nc(Nc2cccc(NC(=O)C3CC(=O)CC(=O)C3)c2)ncc1Br` [XI-29] was run?
The IC50 was 10 to 100 nM.

How did the IC50 turn out when `COC1=CC(=O)CC(C(=O)Nc2cccc(Nc3ncc(Br)c(NCCCNC(=O)C(C)(C)C(N)=O)n3)c2)C1` (centres unmarked) [XI-30] was run?
Its IC50 is 10 to 100 nM.

With `C=CC(=O)NCC(=O)Nc1cccc(Nc2ncc(Br)c(NCCCNC(=O)C(C)(C)C(N)=O)n2)c1` [XI-31] as the molecule, how does the IC50 read?
The IC50 was 10 to 100 nM.

For `CC1(C)OC2C(=O)CC(C(=O)NCC(=O)Nc3cccc(Nc4ncc(Br)c(NCCCNC(=O)C(C)(C)C(N)=O)n4)c3)C2O1` (centres unmarked) [XI-32], which IC50 is on record?
Its IC50 is 100 to 1000 nM.

With `CC(C)(C(N)=O)C(=O)NCCCNc1nc(Nc2cccc(NC(=O)CC(N)C(=O)N3C[C@H]4C[C@@H]3C(=O)O4)c2)ncc1Br` (some centres unmarked) [XI-33] as the molecule, how does the IC50 read?
The IC50 was 10 to 100 nM.

`CC(C)(C(N)=O)C(=O)NCCCNc1nc(Nc2cccc(NC(=O)CCC(=O)NC3CCSC3=O)c2)ncc1Br` (centres unmarked) [XI-34] was tested. Which IC50 did it give?
Its IC50 is 10 to 100 nM.

`CC(C)(C(N)=O)C(=O)NCCCNc1nc(Nc2cccc(NC(=O)c3ccc4c(c3)CCC(=O)O4)c2)ncc1Br` [XI-36] was tested. Which IC50 did it give?
Its IC50 is 10 to 100 nM.

`CC(C)(C(N)=O)C(=O)NCCCNc1nc(Nc2cccc(NC(=O)CNC(=O)[C@@H]3CCC(=O)O3)c2)ncc1Br` [XI-37] was tested. Which IC50 did it give?
The IC50 was 10 to 100 nM.

How did the IC50 turn out when `CC(C)(C(N)=O)C(=O)NCCCNc1nc(Nc2ccc(CCC(=O)N3C[C@H]4C[C@@H]3C(=O)O4)cc2)ncc1Br` [XI-40] was run?
The IC50 was under 10 nM.

With `CC(C)(C(N)=O)C(=O)NCCCNc1nc(Nc2ccc(CCC(=O)N3C[C@@H]4C[C@H]3C(=O)O4)cc2)ncc1Br` [XI-41] as the molecule, how does the IC50 read?
The IC50 was under 10 nM.

Which IC50 does the source give for `CC(C)(C(N)=O)C(=O)NCCCNc1nc(Nc2ccc(NC(=O)[C@H]3CCC(=O)O3)cc2)ncc1Br` [XI-42] here?
The IC50 was 10 to 100 nM.

With `CC(C)(C(N)=O)C(=O)NCCCNc1nc(Nc2ccc(NC(=O)[C@@H]3CCC(=O)O3)cc2)ncc1Br` [XI-43] as the molecule, how does the IC50 read?
Its IC50 is 100 to 1000 nM.

`CC(C)(C(N)=O)C(=O)NCCCNc1nc(Nc2cccc(CCC(=O)N3C[C@@H]4C[C@H]3C(=O)O4)c2)ncc1Br` [XI-44] was tested. Which IC50 did it give?
Its IC50 is 10 to 100 nM.

For `CC(C)(C(N)=O)C(=O)NCCCNc1nc(Nc2cccc(CCC(=O)N3C[C@H]4C[C@@H]3C(=O)O4)c2)ncc1Br` [XI-45], which IC50 is on record?
The IC50 was 10 to 100 nM.

For `CC(C)(C(N)=O)C(=O)NCCCNc1nc(Nc2cccc(N3C(=O)CCC3=O)c2)ncc1Br` [XI-46], which IC50 is on record?
The IC50 was 10 to 100 nM.

For `CON1C[C@H](NC(=O)CCC(=O)Nc2cccc(Nc3ncc(Br)c(NCCCNC(=O)C(C)(C)C(N)=O)n3)c2)C1=O` [XI-47], which IC50 is on record?
Its IC50 is under 10 nM.

Which IC50 does the source give for `CC(C)(C(N)=O)C(=O)NCCCNc1nc(Nc2cccc(NC(=O)CCC(=O)N3C[C@@H]4CC3C(=O)O4)c2)ncc1Br` [XI-48] here?
Its IC50 is under 10 nM.

How did the IC50 turn out when `CC(C)(C(N)=O)C(=O)NCCCNc1nc(Nc2cccc(NC(=O)[C@H]3CCC(=O)O3)c2)ncc1Br` [XI-50] was run?
Its IC50 is 10 to 100 nM.

How did the IC50 turn out when `CC(C)(C(N)=O)C(=O)NCCCNc1nc(Nc2cccc(NC(=O)[C@@H]3CCC(=O)O3)c2)ncc1Br` [XI-52] was run?
Its IC50 is 10 to 100 nM.

`CC(C)(C(N)=O)C(=O)NCCCNc1nc(Nc2cccc(NC(=O)CCC(=O)N3CCC3=O)c2)ncc1Br` [XI-55] was tested. Which IC50 did it give?
The IC50 was under 10 nM.

For `CC(C)(C(N)=O)C(=O)NCCCNc1nc(Nc2cccc(NC(=O)CC(NC(=O)CCCC(=O)NCCCOCCOCCOCCCNC(=O)CCCC[C@@H]3SC[C@@H]4NC(=O)N[C@@H]43)C(=O)N3C[C@H]4C[C@@H]3C(=O)O4)c2)ncc1Br` (some centres unmarked) [XI-56], which IC50 is on record?
Its IC50 is 100 to 1000 nM.
